Columns and labels:
Human THP-1 cells = experiment: VEGFA release in human THP-1 cells (ELISA); type: cell-based; settings: indicated dosage of FTOi, 24 hours or 48 hours; supernatant ELISA
Description: (§1) Primary WT or mutant mouse bone marrow derived macrophages (BMDMs) were isolated as previously described (4). BMDMs were cultured in IMDM (Gibco) basal medium containing 10% fetal bovine serum (FBS), 30% L929 supernatants, nonessential amino acids, sodium pyruvate, 2-mercaptoethanol, and antibiotics. THP-1 cells were cultured in RPMI 1640 medium with 10% FBS and antibiotics. Human RPE cells were isolated as previously described and cultured in DMEM medium with 10% FBS and antibiotics. All cells were maintained at 37° C. in a 5% CO2 environment.
The RPE-choroid complex was isolated from mouse eyes on day 3 after laser injury and treatment with FTO inhibitor or vehicle. Eye tissues were lysed by sonication with immunoprecipitation assay (RIPA) buffer (Sigma-Aldrich, R0278, USA) containing protease inhibitor (Sigma-Aldrich, 11836170001, USA), on ice for 15 minutes. The lysate was centrifuged at 20,000×g for 15 minutes at 4° C., and total protein in the lysates was quantified using the Thermo Scientific™ Pierce™ BCA™ Protein Assay (Fisher Scientific, PI23225, USA). VEGFA protein levels in the supernatants were measured by VEGF DuoSet ELISA (R&D Systems, DY493, USA), following the manufacturer's instructions. […] VEGFA levels in the supernatants were measured by mouse or human VEGF DuoSet ELISA (R&D Systems, DY493 or DY293B, USA), following the manufacturer's instructions.

mouse BMDMs = experiment: VEGFA release in mouse BMDMs (ELISA); type: cell-based; settings: FTOi 20 uM 12 hours, with or without LPS 250 ng/ml 6 hours, supernatant ELISA
Description: as §1
The RPE-choroid complex was isolated from mouse eyes on day 3 after laser injury and treatment with FTO inhibitor or vehicle. Eye tissues were lysed by sonication with immunoprecipitation assay (RIPA) buffer (Sigma-Aldrich, R0278, USA) containing protease inhibitor (Sigma-Aldrich, 11836170001, USA), on ice for 15 minutes. The lysate was centrifuged at 20,000×g for 15 minutes at 4° C., and total protein in the lysates was quantified using the Thermo Scientific™ Pierce™ BCA™ Protein Assay (Fisher Scientific, PI23225, USA). VEGFA protein levels in the supernatants were measured by VEGF DuoSet ELISA (R&D Systems, DY493, USA), following the manufacturer's instructions. Mouse BMDMs or human THP-1 cells (5×10^5 cells per well) were plated into six-well plates in complete medium and allowed to adhere overnight. Cells were then incubated for 24 hours in the absence or presence of various doses of FTO inhibitor or METTL3 inhibitors (STM2457, Selleck Chemicals). […] The siRNAs (siFto: 5′-P.G.A.G.G.A.U.C.C.A.A.G.G.C.A.A.A.G.A.U.dT.dT 3′ (SEQ ID NO: 38); siCtrl: 5′-P.U.A.A.G.G.C.U.A.U.G.A.A.G.A.G.A.U.dT.dT 3′; SEQ ID NO: 39), were designed and synthesized by GE Healthcare Dharmacon, were transfected twice with BMDMs by using DharmaFECT 4 Transfection Reagent (Dharmacon, T-2004, USA). VEGFA levels in the supernatants were measured by mouse or human VEGF DuoSet ELISA (R&D Systems, DY493 or DY293B, USA), following the manufacturer's instructions.

Wild type C57BL/6J mice = experiment: LPS model of septic shock, survival; type: in vivo, mouse; settings: FTOi 20 mg/kg i.p. 16 hours before, 10 mg/kg LPS challenge; log-rank p<0.05 vs vehicle
Description: To induced septic shock model, male or female C57BL/6 mice (6 to 10 weeks old) were primed with 10 mg/kg poly(I:C) via intraperitoneal injection. 6 hours later, primed mice were injected with 10 mg/kg LPS and monitored three time daily for a total 5 days. For FTO inhibitor treatment, Wild type C57BL/6J mice were pretreated with 20 mg/kg FB23-2 for 16 hours before sepsis induction. Next day, 20 mg/kg FB23-2 together with 10 mg/kg poly(I:C) were intraperitoneally injected, following with LPS challenge at 6 hours after poly(I:C) priming.

[1] = test system: Human RPE cell line, ARPE-19; experiment: TGF-β1-induced fibrotic response in ARPE-19 (immunoblotting, immunofluorescence); type: cell-based; settings: FTOi pretreatment at indicated concentrations, TGF-β1 10 ng/ml 12 hours
Description: Cells and tissues were homogenized in RIPA buffer (R0278, Sigma) with protease and phosphatase inhibitors (A32959, Thermo Scientific). Protein concentration was determined with a Pierce BCA Protein Assay Kit (23225, Thermo Scientific). Equal quantities of protein boiled in LDS Sample Buffer (NP0007, Thermo Scientific) were resolved by Novex Tris-glycine gels (Invitrogen) and transferred onto LF PVDF membranes (1704274, Bio-Rad). The transferred membranes were blocked with Blocking Buffer (927-40000, LI-COR) and incubated with the following primary antibodies: anti-FTO pAb (AdipoGen Life Sciences, AG-25A-0089-C100, USA), anti-GAPDH mAb (Cell Signaling Technology, 97166), anti-F4/80 (Santa Cruz Biotechnology, sc-25830). The signal was visualized with species-specific secondary antibodies conjugated with IRDye and Odyssey® CLx Imaging System.

In vivo retinal toxicity = settings: FTO inhibition
[2] = Cell viability under FTO inhibition; type: cell-based

Cc1noc(C)c1-c1cc(Cl)c(Nc2ccccc2C(=O)NO)c(Cl)c1 [FB23-2]
VEGFA release (Human THP-1 cells): inhibits VEGFA release | VEGFA release (mouse BMDMs): inhibits VEGFA release | VEGFA release (mouse BMDMs; listed as FTO inhibitor): reduction in mouse VEGFA release | Survival (mice death) (Wild type C57BL/6J mice): rescues the mice death | Fibrotic response (αSMA, fibronectin) [1]: suppress the fibrotic response | In vivo retinal toxicity (In vivo retinal toxicity): did not observe in vivo retinal toxicity | Adverse effects on cell viability [2]: minimal adverse effects on cell viability
